Here are results for 23 molecules from patent publication US10328163B2, “Compounds binding to neuropathological aggregates” (Technische Universität München, priority 2014, dated 2019).

Entries after “also recorded” stand apart in the source; their conditions may differ. Like-named read-outs stand apart in the source and are kept apart here.

As a reminder, the Ki is the equilibrium dissociation constant of an inhibitor or competing ligand from its target. One may read the inhibition as the drop in the measured response relative to a control, in per cent. The low end stands for a weak effect, the high end for a strong effect. What is called logP is the decadic logarithm of the partition coefficient of the neutral form, usually between octanol and water. Read a high logP as a more lipophilic compound.

The target in data set [1] is human tau-441 recombinant aggregate (fibrils) (Homo sapiens, UniProt P10636). The data set is described as follows: Saturation and competition binding assay on tau aggregates (fibrils). The method, then:
(§1) Saturation and competition binding assays of compounds in this invention towards synthetic amyloid peptides, human tau-441 recombinant and human α-synuclein recombinant aggregate (fibrils) were performed similar to previously reported assays (Manook et al. 2012 and Yousefi et al. 2011) and adapted to the change of peptides and label. Aggregates sample was deployed on 96-well cell culture plates (Greiner Bio-One, Germany) to a final reaction volume of […] per well using 8-channel electronic pipettes (Mettler Toledo, Germany) giving 12-24 octuples of data points per sample. Bound and free fractions were separated by vacuum filtration through polyethyleneimine-pretreated GF/B glass filtermats using a semi-automated Harvester 96 Mach II M (Tomtec, USA). Filters were cut and retained radioactivity determined using an automatic NaI(TI) well-type γ-detector (Wallac 1480-011 Automatic Gamma Counter, PerkinElmer, USA). Data were processed and analyzed using GraphPad Prism 6.0 (GraphPad Software, USA).

Data set [2] relates to Aβ1-40, Aβ1-42, τ, α-Syn aggregates. The data set is described as follows: In vitro selectivity / binding profile across aggregates (potential use: targeting of). To be noted: for Potential Use: Targeting of (in vitro selectivity): Table 2. The method, then: as §1
For a further data set, the target named is Aβ1-42 (Homo sapiens, UniProt P05067). The data set is described as follows: Competition binding assay vs [^3H]PiB on synthetic amyloid peptide aggregates (Aβ1-42). The settings on record: for inhibition at 0.1 µM: 100 nM; for Ki: read-out: Affinity Ki, Aβ1-42. How it is done: as §1
The target in data set [3] is human α-synuclein recombinant aggregate (fibrils) (Homo sapiens, UniProt P37840). Briefly: Saturation and competition binding assay on α-synuclein aggregates (fibrils). The settings on record: read-out: Affinity Ki, α-syn. How it is done: as §1
Another data set deals with Aβ1-40 (Homo sapiens, UniProt P05067). The data set is described as follows: Competition binding assay vs [^3H]PiB on synthetic amyloid peptide aggregates (Aβ1-40). The settings on record: for inhibition at 0.1 µM: 100 nM; for Ki: read-out: Affinity Ki, Aβ1-40. How it is done: as §1
The next data set is described as follows: log P (octanol/PBS). The class given is physicochemical. To be noted: Table 2. An excerpt:
Lipophilicity of CNS tracers plays an important role on blood brain barrier (BBB) and neuronal cells uptake. Therefore a library of ^18F-bithiazoles with high binding affinity towards Aβ1-40, Aβ1-42 τ, α-Syn were synthesized and log P (octanol/PBS) of these compounds measured (Table 2). The log P values were between 1.1-3.2.

The test system of another data set is Aβ and NFT. The data set is described as follows: Ex vivo validation on APP/PS1-tau triple transgenic mouse brain, cross-validated with thioflavin S and AT8. It counts as in vivo.
Data set [4] concerns the target T1, Aβ1-40, Aβ1-42, τ, α-Syn aggregates.
T1 construct: other: span over all aggregate types, text summar
Briefly: In vitro selectivity / binding profile across aggregates (potential use: targeting of). To be noted: span over all aggregate types, summary of Table 1; read-out: in vitro affinity (Ki) to β-amyloids, NFT τ and synuclein aggregates. How it is done: as §1

The next data set deals with β-amyloids. Briefly: In vitro staining of APP/PS1 tg mouse brain. The class given is binding. The settings on record: 24 month old, 1% solution of compound.
Where [5] appears, read: Table 1, read-out: Affinity Ki, T.
Where [6] appears, read: Table 3, read-out: Affinity Ki, τ.

Aβ1-40, sequence (P05067 672-711): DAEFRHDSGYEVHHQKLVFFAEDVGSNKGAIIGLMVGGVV
human tau-441 recombinant aggregate (fibrils), sequence (P10636 1-441 isoform P10636-8): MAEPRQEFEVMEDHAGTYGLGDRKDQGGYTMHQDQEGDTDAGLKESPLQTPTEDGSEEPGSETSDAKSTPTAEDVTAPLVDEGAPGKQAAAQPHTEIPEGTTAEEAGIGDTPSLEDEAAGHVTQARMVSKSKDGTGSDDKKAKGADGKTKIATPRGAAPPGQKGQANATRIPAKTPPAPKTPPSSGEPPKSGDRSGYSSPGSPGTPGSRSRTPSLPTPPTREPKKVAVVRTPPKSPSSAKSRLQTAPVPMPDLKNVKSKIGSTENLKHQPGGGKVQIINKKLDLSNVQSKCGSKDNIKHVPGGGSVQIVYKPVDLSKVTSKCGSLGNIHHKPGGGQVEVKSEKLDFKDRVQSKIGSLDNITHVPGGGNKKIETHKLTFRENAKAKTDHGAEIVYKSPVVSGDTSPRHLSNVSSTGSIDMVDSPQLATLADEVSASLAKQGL
Aβ1-42, sequence (P05067 672-713): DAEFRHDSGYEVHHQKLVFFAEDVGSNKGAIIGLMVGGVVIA

Consider `CCOc1ccc(-c2csc(-c3nc(-c4ccc(OC)cc4)cs3)n2)cc1` [Compound 6], for which the Ki was more than 1000 nM in [1] (setting [5]) and 371 nM in data set [3] (Table 1). In addition, in [2] (Table 1), the “Potential Use: Targeting of” value is listed as “α-syn aggregates low binding site”. The inhibition at 0.1 µM at Aβ1-42 (Table 1) was determined as 30 ± 1%; on Aβ1-40 (Table 1), 22 ± 1%.

Turning to `CN(C)c1ccc(-c2csc(-c3nc(-c4ccc(O)cc4)cs3)n2)cc1` [Compound 1], the Ki in data set [1] (setting [5]) was more than 1000 nM; at Aβ1-42 (Table 1), 6 nM; in data set [3] (Table 1), more than 1000 nM; at Aβ1-40 (Table 1) it was 4 nM. Also, in data set [2] (Table 1), the “Potential Use: Targeting of” value was “Aβ”. The inhibition at 0.1 µM came out at 88 ± 1% at Aβ1-42 (Table 1) and 94% at Aβ1-40 (Table 1).

Turning to `CN(C)c1ccc(-c2csc(-c3nc(-c4ccc(O)nc4)cs3)n2)cc1` [Compound 20], the Ki in [1] (setting [6]) was more than 1000 nM; on Aβ1-42 (Table 3), 6 nM; in data set [3] (Table 3) it was more than 1000 nM; on Aβ1-40 (Table 3) it was 5 nM. In addition, in “log P (octanol/PBS)”, the logP is 1.9. For the same molecule, the “Potential Use: Targeting of (in vitro selectivity)” value in data set [2] is “Aβ”. Besides, the “Potential Use: Targeting of” value in [2] (Table 3) was “Aβ”. Moreover, the inhibition at 0.1 µM on Aβ1-42 (Table 3) stood at 89 ± 1%; at Aβ1-40 (Table 3), 90%.

Take `COc1sc(-c2csc(-c3nc(-c4ccc5c(c4)OCO5)cs3)n2)cc1F` [Compound 23]: the Ki in [1] (setting [6]) is 10 nM; on Aβ1-42 (Table 3), 10 nM; in [3] (Table 3), 7 nM; at Aβ1-40 (Table 3) it was 9 nM. Besides, the logP in the data set “log P (octanol/PBS)” came to 2.9. In data set [2], the “Potential Use: Targeting of (in vitro selectivity)” value is reported as “PAN”. Also, the “Potential Use: Targeting of” value in data set [2] (Table 3) is reported as “PAN”. Also, the inhibition at 0.1 µM came out at 86 ± 1% at Aβ1-42 (Table 3) and 87 ± 2% on Aβ1-40 (Table 3).

In the case of `Fc1ccc(-c2cc(-c3csc(-c4nc(-c5ccc6c(c5)OCO6)cs4)n3)on2)cc1` [Compound 22], the Ki in [1] (setting [6]) is more than 1000 nM; on Aβ1-42 (Table 3) it was 492 nM; in data set [3] (Table 3), 6 nM; on Aβ1-40 (Table 3) it was more than 500 nM. The molecule also gave a log partition coefficient (logP) in “log P (octanol/PBS)” of 3.2. Besides, the “Potential Use: Targeting of (in vitro selectivity)” value in data set [2] is “α-syn”. Also, the results for the inhibition at 0.1 µM at Aβ1-42 (Table 3) and on Aβ1-40 (Table 3) were 35 ± 2% and 20 ± 1%, respectively.

On to `CN(C)c1ccc(-c2csc(-c3nc(-c4ccc(OCCOCCF)cc4)cs3)n2)cc1` [Compound 13], for which, in the data set “log P (octanol/PBS)”, the logP turned out to be 2.6. For the same molecule, the “Potential Use: Targeting of (in vitro selectivity)” value in data set [2] is on record as “Aβ”.

With `COc1ccc(-c2csc(-c3nc(-c4ccc5c(c4)OCO5)cs3)n2)cc1O` [Compound 2], the “ex vivo brain staining, targets labelled” value in the data set on Aβ and NFT (APP/PS1-tau triple transgenic mouse, 24 month old, 45 min p.i., 0.6 mg in DMSO, cortical (FIG. 3) and hippocampus (FIG. 4) region) was “targets Aβ and NFT in the mouse model”. Also, the “specificity of binding, ex vivo and in vitro validation” value in the data set with Aβ and NFT (APP/PS1 and APP/PS1-tau triple tg mouse model of AD brain) was “specific binding of compound 2 to Aβ and NFT”. Further, the Ki is 12 nM in data set [1] (setting [5]); 7 to 12 nM in data set [4]; 7 nM at Aβ1-42 (Table 1); 9 nM in data set [3] (Table 1); 10 nM at Aβ1-40 (Table 1). The “Potential Use: Targeting of” value in data set [2] (Table 1) was “Aβ, α-syn, τ- aggregates (PAN- ligand)”. Besides, the inhibition at 0.1 µM is 86 ± 1% on Aβ1-42 (Table 1) and 81 ± 2% at Aβ1-40 (Table 1). The “in vitro staining of brain” value with β-amyloids was “specific binding to β-amyloids; also recorded: targets Aβ in the mouse model”.

For the molecule `COc1ccc(-c2csc(-c3nc(-c4ccc5c(c4)OCO5)cs3)n2)cc1F` [Compound 3], the Ki was more than 1000 nM in [1] (setting [5]), 382 nM at Aβ1-42 (Table 1) and 3 nM in data set [3] (Table 1). Moreover, the inhibition at 0.1 µM on Aβ1-42 (Table 1) stood at 45 ± 2%; on Aβ1-40 (Table 1), 22 ± 1%.

For `Oc1ccc(-c2csc(-c3nc(-c4ccc(OCCOCCOCCF)cc4)cs3)n2)cc1` [Compound 17], in “log P (octanol/PBS)”, the logP came to 1.8. Also, the “Potential Use: Targeting of (in vitro selectivity)” value in [2] is “The low binding site of Aβ”.

Regarding `CN(C)c1ccc(-c2csc(-c3nc(-c4ccc(OCF)cc4)cs3)n2)cc1` [Compound 7], in “log P (octanol/PBS)”, the logP was 3.2. Moreover, in [2], the “Potential Use: Targeting of (in vitro selectivity)” value is “Aβ”.

As to `CCOc1ccc(-c2csc(-c3nc(-c4ccc5c(c4)OCO5)cs3)n2)cc1` [Compound 4], the Ki in data set [1] (setting [5]) was determined as 558 nM; at Aβ1-42 (Table 1) it was 386 nM; in [3] (Table 1) it was 10 nM. Besides, the inhibition at 0.1 µM was found to be 45 ± 2% on Aβ1-42 (Table 1) and 11 ± 2% on Aβ1-40 (Table 1).

Consider `FCOc1ccc(-c2csc(-c3nc(-c4ccc5c(c4)OCO5)cs3)n2)cc1` [Compound 15], for which the logP in “log P (octanol/PBS)” was 2.6. In [2], the “Potential Use: Targeting of (in vitro selectivity)” value is on record as “α-syn”.

As for `CCCCOc1ccc(-c2csc(-c3nc(-c4ccc(OC)c(F)c4)cs3)n2)cc1` [Compound 5], the Ki was more than 1000 nM in [1] (setting [5]), 380 nM at Aβ1-42 (Table 1) and 328 nM in [3] (Table 1). The “Potential Use: Targeting of” value in data set [2] (Table 1) is “Aβ, α-syn aggregates low binding site”. For the same molecule, the inhibition at 0.1 µM at Aβ1-42 (Table 1) came out at 45 ± 1%; on Aβ1-40 (Table 1), 11%.

In “log P (octanol/PBS)”, `Oc1ccc(-c2csc(-c3nc(-c4ccc(OCCOCCF)c(O)c4)cs3)n2)cc1O` [Compound 16] yielded a logP of 1.1. The “Potential Use: Targeting of (in vitro selectivity)” value in [2] is listed as “PAN”.

`FCCOCCOCCOc1ccc(-c2csc(-c3nc(-c4ccc5c(c4)OCO5)cs3)n2)cc1` [Compound 18]: the logP in “log P (octanol/PBS)” amounted to 2.3. In addition, the “Potential Use: Targeting of (in vitro selectivity)” value in [2] was “α-syn”.

On to `Nc1ccc(-c2csc(-c3nc(-c4ccc(NCCOCCOCCF)cc4)cs3)n2)cc1` [Compound 12], for which the logP in the data set “log P (octanol/PBS)” is 2. In addition, the “Potential Use: Targeting of (in vitro selectivity)” value in [2] is “Aβ”.

`Oc1cc(-c2csc(-c3nc(-c4ccc5c(c4)OCO5)cs3)n2)ccc1OCCOCCF` [Compound 9] returned a logP in the data set “log P (octanol/PBS)” of 1.9. Moreover, the “Potential Use: Targeting of (in vitro selectivity)” value in data set [2] is recorded as “PAN”.

Take `CN(C)c1ccc(-c2csc(-c3nc(-c4ccc(F)nc4)cs3)n2)cc1` [Compound 21]: the Ki in data set [1] (setting [6]) was more than 1000 nM; on Aβ1-42 (Table 3), 6 nM; in [3] (Table 3), more than 1000 nM; at Aβ1-40 (Table 3) it was 6 nM. Further, in “log P (octanol/PBS)”, the logP stood at 2.1. In data set [2], the “Potential Use: Targeting of (in vitro selectivity)” value is “Aβ”. In addition, the “Potential Use: Targeting of” value in data set [2] (Table 3) is on record as “Aβ”. For the same molecule, the inhibition at 0.1 µM on Aβ1-42 (Table 3) turned out to be 88 ± 1%; at Aβ1-40 (Table 3), 89 ± 2%.

`FCCOc1ccc(-c2csc(-c3nc(-c4ccc5c(c4)OCO5)cs3)n2)cc1` [Compound 10] showed a logP in the data set “log P (octanol/PBS)” of 2.6. The “Potential Use: Targeting of (in vitro selectivity)” value in data set [2] is listed as “α-syn”.

In the case of `CN(C)c1ccc(-c2csc(-c3nc(-c4ccc(NCCOCCOCCF)cc4)cs3)n2)cc1` [Compound 19], the logP in the data set “log P (octanol/PBS)” came out at 2.4. Moreover, the “Potential Use: Targeting of (in vitro selectivity)” value in [2] was “Aβ”.

Consider `FCCOCCOc1ccc(-c2csc(-c3nc(-c4ccc5c(c4)OCO5)cs3)n2)cc1` [Compound 11], for which, in the data set “log P (octanol/PBS)”, the logP was found to be 2.5. Also, in [2], the “Potential Use: Targeting of (in vitro selectivity)” value is “α-syn”.

In the data set “log P (octanol/PBS)”, `Oc1cc(-c2csc(-c3nc(-c4ccc5c(c4)OCO5)cs3)n2)ccc1OCCF` [Compound 8] had a logP of 2.1. The “Potential Use: Targeting of (in vitro selectivity)” value in data set [2] is reported as “PAN”.

With `Oc1ccc(-c2csc(-c3nc(-c4ccc(OCCOCCF)cc4)cs3)n2)cc1` [Compound 14], the logP in “log P (octanol/PBS)” worked out at 1.9. The “Potential Use: Targeting of (in vitro selectivity)” value in [2] was “The low binding site of Aβ”.
